Our source for the Ki, IC50 and EC50 values is patent US7671056B2, “Piperazine-piperidine antagonists and agonists of the 5-HT1A receptor” (Wyeth LLC, priority 2005, dated 2010).

A word on the Ki: it is the dissociation constant of the complex between target and ligand, obtained from inhibition or displacement. By IC50 is commonly meant the concentration that inhibits the measured activity by half. The term EC50 denotes the concentration that produces a half-maximal response. A lower EC50 goes with higher potency in that assay.

The target of experiment [1] is T1, human 5-HT1A receptor (Homo sapiens, UniProt P08908).
T1 construct: expressed in transfected cells
T1 sequence (P08908 1-422): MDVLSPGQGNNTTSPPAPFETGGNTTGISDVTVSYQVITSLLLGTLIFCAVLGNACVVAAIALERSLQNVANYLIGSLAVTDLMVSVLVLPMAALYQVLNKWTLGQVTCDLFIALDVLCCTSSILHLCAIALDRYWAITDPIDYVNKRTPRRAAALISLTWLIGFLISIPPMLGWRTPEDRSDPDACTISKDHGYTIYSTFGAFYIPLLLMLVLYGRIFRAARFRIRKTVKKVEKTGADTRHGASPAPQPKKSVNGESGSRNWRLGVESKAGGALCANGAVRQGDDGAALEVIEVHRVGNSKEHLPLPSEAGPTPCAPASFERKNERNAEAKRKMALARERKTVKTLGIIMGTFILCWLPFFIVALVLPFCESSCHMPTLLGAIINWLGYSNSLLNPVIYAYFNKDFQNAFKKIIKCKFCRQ
The experiment is described as follows: Radioligand binding with [3H]8-OH-DPAT on membranes of 5-HT1A.CHO cells. On the procedure: The PCR cloning of the human 5-HT1A receptor subtype from a human genomic library has been described previously (Chanda et al., Mol. Pharmacol., 43:516 (1993)). A stable Chinese hamster ovary cell line expressing the human 5-HT1A receptor subtype (5-HT1A.CHO cells) was employed throughout this study. Cells were maintained in DMEM supplemented with 10% fetal calf serum, non-essential amino acids and penicillin/streptomycin. Radioligand binding assays were performed as described in Dunlop, J. et al., J. Pharmacol. and Toxicol. Methods 40: 47-55 (1998), which is incorporated by reference. Cells were grown to 95-100% confluency as a monolayer before membranes were harvested for binding studies. Cells were gently scraped from the culture plates, transferred to centrifuge tubes, and washed twice by centrifugation (2000 rpm for 10 min., 4° C.) in buffer (50 mM Tris; pH 7.5). The resulting pellets were aliquoted and placed at −80° C. On the day of assay, the cells were thawed on ice, and resuspended in buffer. Studies were conducted using [^3H]8-OH-DPAT as the radioligand. The binding assay was performed in 96 well microtiter plates in a final total volume of 250 μL of buffer. Competition experiments were performed by using seven different concentrations of unlabelled drug and a final ligand concentration of 1.5 nM. Non-specific binding was determined in the presence of 10 μM 5HT. Saturation analysis was conducted by using [^3H]8-OH-DPAT at concentrations ranging from 0.3-30 nM. Following a 30 minute incubation at room temperature, the reaction was terminated by the addition of ice cold buffer and rapid filtration using a M-96 Brandel Cell Harvester (Gaithersburg, Md.) through a GF/B filter presoaked for 30 minutes in 0.5% polyethyleneimine. Table 1 provides Ki values for the tested compounds.

Experiment [2] has as its target T1, human 5-HT1A receptor. The experiment is described as follows: cAMP measurements, antagonist mode: block of 8-OH-DPAT-induced inhibition of forskolin-stimulated cAMP. Type of experiment: cell-based. On the procedure:
The PCR cloning of the human 5-HT1A receptor subtype from a human genomic library has been described previously (Chanda et al., Mol. Pharmacol., 43:516 (1993)). A stable Chinese hamster ovary cell line expressing the human 5-HT1A receptor subtype (5-HT1A.CHO cells) was employed throughout this study. Cells were maintained in DMEM supplemented with 10% fetal calf serum, non-essential amino acids and penicillin/streptomycin. Measurements were performed as described in Dunlop, J. et al., supra. Assays were performed by incubating the cells with DMEM containing 25 mM HEPES, 5 mM theophylline and 10 μM pargyline for a period of 20 minutes at 37° C. […] The reaction was terminated by removal of the media and addition of 0.5 ml ice cold assay buffer. Plates were stored at −20° C. prior to assessment of cAMP formation by a cAMP SPA assay (Amersham). Compounds of the invention were tested according to the protocol described. […] Compounds having 5-HT1A antagonist activity show no effect on forskolin-induced increases in cAMP levels on their own, but block the 8-OH-DPAT-induced inhibition of forskolin-stimulated increases in cAMP levels. Results are required as IC50 values (Table 1, “Antagonist Activity IC50”)

Experiment [3] concerns the target T1, human 5-HT1A receptor. The experiment is described as follows: cAMP measurements, agonist mode: inhibition of forskolin-induced increase in cAMP. Type of experiment: cell-based. Conditions: forskolin 1 uM, 5-HT1A.CHO cells. On the procedure: The PCR cloning of the human 5-HT1A receptor subtype from a human genomic library has been described previously (Chanda et al., Mol. Pharmacol., 43:516 (1993)). A stable Chinese hamster ovary cell line expressing the human 5-HT1A receptor subtype (5-HT1A.CHO cells) was employed throughout this study. Cells were maintained in DMEM supplemented with 10% fetal calf serum, non-essential amino acids and penicillin/streptomycin.
Measurements were performed as described in Dunlop, J. et al., supra. Assays were performed by incubating the cells with DMEM containing 25 mM HEPES, 5 mM theophylline and 10 μM pargyline for a period of 20 minutes at 37° C. Functional activity was assessed by treating the cells with forskolin (1 uM final concentration) followed immediately by test compound (6 different concentrations) for an additional 10 minutes at 37° C. In separate experiments, 6 concentrations of antagonist were preincubated for 20 min prior to the addition of 10 nM 8-OH-DPAT and forskolin. The reaction was terminated by removal of the media and addition of 0.5 ml ice cold assay buffer. Plates were stored at −20° C. prior to assessment of cAMP formation by a cAMP SPA assay (Amersham). […]

Setting [4] is: [3H]8-OH-DPAT 1.5 nM, 5-HT1A.CHO cell membranes, read-out: 5-HT1A Affinity Ki.
[5] abbreviates: 10 nM 8-OH-DPAT and forskolin, 5-HT1A.CHO cells, read-out: Antagonist Activity IC50.

Where two headings read alike, the source gives them in different places.

For the molecule `Fc1ccc2occ(N3CCN(C4CCN(c5ccc(F)c6cccnc56)CC4)CC3)c2c1` [F, 5-fluoro-8-{4-[4-(5-fluoro-1-benzofuran-3-yl)-1-piperazinyl]-1-piperidinyl}quinoline], on human 5-HT1A receptor [1] (setting [4]), the inhibitory constant (Ki) was 1.69 nM. In addition, the half-inhibitory concentration (IC50) at human 5-HT1A receptor [2] (setting [5]) was 10.8 nM.

Take `Cc1ccc2cccc(N3CCN(C4CCN(c5cccc6cccnc56)CC4)CC3)c2n1` [Example 10, 2-methyl-8-{4-[1-(8-quinolinyl)-4-piperidinyl]-1-piperazinyl}quinoline]: the Ki on human 5-HT1A receptor [1] (setting [4]) was found to be 0.83 nM. Further, the response on human 5-HT1A receptor [3] was half-maximal at 3.28 nM (EC50).

`Fc1ccc(N2CCN(C3CCN(c4cccc5cccnc45)CC3)CC2)c2ncccc12` [Example 15]: the inhibition constant Ki on human 5-HT1A receptor [1] (setting [4]) was 0.15 nM. Moreover, at human 5-HT1A receptor [2] (setting [5]), the half-inhibitory concentration (IC50) turned out to be 23.5 nM.

Take `COc1cc(N2CCN(C3CCN(c4c(F)ccc5cccnc45)CC3)CC2)c2ncccc2c1` [J, 8-{4-[1-(7-Fluoroquinolin-8-yl)piperidin-4-yl]piperazin-1-yl}-6-methoxyquinoline]: the inhibitory constant (Ki) on human 5-HT1A receptor [1] (setting [4]) stood at 0.61 nM. For the same molecule, the IC50 on human 5-HT1A receptor [2] (setting [5]) was determined as 9.95 nM.

On to `Clc1cc(N2CCC(N3CCN(c4coc5ccccc45)CC3)CC2)c2ncccc2c1` [Example 16, 8-{4-[4-(1-Benzofuran-3-yl)-1-piperazinyl]-1-piperidinyl}-6-chloroquinoline], for which the Ki at human 5-HT1A receptor [1] (setting [4]) was found to be 148 nM. On human 5-HT1A receptor [2] (setting [5]), the IC50 came out at 1080 nM.

On to `Clc1cc(N2CCN(C3CCN(c4cccc5cccnc45)CC3)CC2)c2ncccc2c1` [Example 11, 6-chloro-8-{4-[1-(8-quinolinyl)-4-piperidinyl]-1-piperazinyl}quinoline], for which, at human 5-HT1A receptor [1] (setting [4]), the Ki was determined as 0.48 nM. In addition, the EC50 at human 5-HT1A receptor [3] is 3.84 nM.

For `c1cnc2c(N3CCC(N4CCN(c5cccc6cccnc56)CC4)CC3)cccc2c1` [Example 3, 8-{4-[1-(8-quinolinyl)-4-piperidinyl]-1-piperazinyl}quinoline], the Ki at human 5-HT1A receptor [1] (setting [4]) was 0.4 nM. In addition, at human 5-HT1A receptor [3], it took 10 nM to reach a half-maximal effect (EC50).

Consider `COc1cc(N2CCN(C3CCN(c4cccc5cc(C(F)(F)F)cnc45)CC3)CC2)c2ncccc2c1` [L, 8-{4-[4-(6-Methoxyquinolin-8-yl)piperazin-1-yl]piperidin-1-yl}-3-(trifluoromethyl)quinoline], for which, on human 5-HT1A receptor [1] (setting [4]), the inhibition constant Ki is 1.2 nM. Moreover, a half-maximal response on human 5-HT1A receptor [3] (EC50) required 29.5 nM.

For the molecule `COc1ccc(N2CCN(C3CCN(c4cccc5cccnc45)CC3)CC2)c2ncccc12` [Example 14, 5-Methoxy-8-{4-[1-(8-quinolinyl)-4-piperidinyl]-1-piperazinyl}-quinoline], the inhibition constant Ki at human 5-HT1A receptor [1] (setting [4]) is 1.45 nM. Moreover, the half-maximal inhibitory concentration (IC50) at human 5-HT1A receptor [2] (setting [5]) stood at 64.5 nM.

With `FC(F)(F)c1ccc(N2CCN(C3CCN(c4cccc5cccnc45)CC3)CC2)c2ncccc12` [Example 12, 8-{4-[1-(8-quinolinyl)-4-piperidinyl]-1-piperazinyl}-5-(trifluoromethyl)quinoline], the inhibition constant (Ki) at human 5-HT1A receptor [1] (setting [4]) is 3.04 nM. The IC50 on human 5-HT1A receptor [2] (setting [5]) stood at 35.5 nM.

For the molecule `COc1cc(N2CCN(C3CCN(c4cccc5cccnc45)CC3)CC2)c2ncccc2c1` [A, 6-Methoxy-8-{4-[1-(8-quinolinyl)-4-piperidinyl]-1-piperazinyl}quinoline], the inhibition constant (Ki) at human 5-HT1A receptor [1] (setting [4]) was found to be 0.4 nM. In addition, on human 5-HT1A receptor [2] (setting [5]), the IC50 is 3.86 nM.

For the molecule `Clc1ccc(N2CCN(C3CCN(c4cccc5cccnc45)CC3)CC2)c2ncccc12` [Example 8, 5-chloro-8-{4-[1-(8-quinolinyl)-4-piperidinyl]-1-piperazinyl}quinoline], the Ki at human 5-HT1A receptor [1] (setting [4]) was determined as 0.31 nM. Moreover, the concentration for a half-maximal effect (EC50) on human 5-HT1A receptor [3] was 20 nM.

`COc1cc(N2CCN(C3CCN(c4ccc(F)c5c(OC)cc(C(F)(F)F)nc45)CC3)CC2)c2ncccc2c1` [N, 5-fluoro-4-methoxy-8-(4-(4-(6-methoxyquinolin-8-yl)piperazin-1-yl)piperidin-1-yl)-2-(trifluoromethyl)quinoline] returned an inhibition constant Ki on human 5-HT1A receptor [1] of 2.02 nM. Besides, the IC50 against human 5-HT1A receptor [2] was 9.2 nM.

Take `COc1cc(N2CCN(C3CCN(c4ccc(F)c5cccnc45)CC3)CC2)c2ncccc2c1` [P, 5-Fluoro-8-(4-(4-(6-methoxyquinolin-8-yl)piperazin-1-yl)piperidin-1-yl)-quinoline]: at human 5-HT1A receptor [2] (setting [5]), the 50% inhibitory concentration (IC50) was determined as 3.7 nM.

`COc1ccccc1N1CCN(C2CCN(c3csc4ccccc34)CC2)CC1` [G, 1-[1-(1-benzothien-3-yl)-4-piperidinyl]-4-(2-methoxyphenyl)piperazine]: the Ki at human 5-HT1A receptor [1] (setting [4]) was 26.7 nM. On human 5-HT1A receptor [3], a half-maximal response (EC50) required 22 nM.

Consider `COc1ccccc1N1CCN(C2CCN(c3noc4ccccc34)CC2)CC1` [H, 3-{4-[4-(2-methoxyphenyl)-1-piperazinyl]-1-piperidinyl}-1,2-benzisoxazole], for which the Ki at human 5-HT1A receptor [1] (setting [4]) came to 1.45 nM. On human 5-HT1A receptor [3], it took 2.53 nM to reach a half-maximal effect (EC50).

As for `Fc1cc(N2CCN(C3CCN(c4ccc5cccnc5c4F)CC3)CC2)c2ncccc2c1` [K, 6-Fluoro-8-{4-[1-(8-fluoroquinolin-7-yl)piperidin-4-yl]piperazin-1-yl}quinoline], the Ki on human 5-HT1A receptor [1] (setting [4]) is 0.27 nM. Further, a half-maximal response on human 5-HT1A receptor [3] (EC50) required 0.83 nM.

Take `COc1cc(N2CCN(C3CCN(Cc4cccc5cccnc45)CC3)CC2)c2ncccc2c1` [M, 6-Methoxy-8-{4-[1-(quinolin-8-ylmethyl)piperidin-4-yl]piperazin-1-yl}quinoline]: on human 5-HT1A receptor [1] (setting [4]), the Ki amounted to 75.7 nM. For the same molecule, the IC50 at human 5-HT1A receptor [2] (setting [5]) was found to be 176 nM.

As to `Fc1cc(N2CCN(C3CCN(c4cc(Cl)cc5cccnc45)CC3)CC2)c2ncccc2c1` [Example 5, 8-{4-[1-(6-chloro-8-quinolinyl)-4-piperidinyl]-1-piperazinyl}-6-fluoroquinoline], the Ki on human 5-HT1A receptor [1] (setting [4]) amounted to 106 nM.

Regarding `Fc1cc(N2CCN(C3CCN(c4cccc5cccnc45)CC3)CC2)c2ncccc2c1` [B, 6-fluoro-8-{4-[1-(8-quinolinyl)-4-piperidinyl]-1-piperazinyl}quinoline], the inhibition constant (Ki) on human 5-HT1A receptor [1] (setting [4]) came to 0.46 nM. For the same molecule, on human 5-HT1A receptor [2] (setting [5]), the IC50 turned out to be 25 nM.

`Clc1cc(N2CCC(N3CCN(c4cccc5[nH]ccc45)CC3)CC2)c2ncccc2c1` [I, 6-Chloro-8-{4-[4-(1H-indole-4-yl)-1-piperazinyl]-1-piperidinyl}quinoline]: the inhibition constant (Ki) at human 5-HT1A receptor [1] was found to be 40.8 nM.

On to `c1cnc2c(N3CCC(N4CCN(c5cccc6[nH]ccc56)CC4)CC3)cccc2c1` [D, 8-{4-[4-(1H-indole-4-yl)-1-piperazinyl]-1-piperidinyl}quinoline], for which the inhibitory constant (Ki) at human 5-HT1A receptor [1] (setting [4]) came out at 0.59 nM. Also, on human 5-HT1A receptor [2], inhibition was half-maximal at 24 nM (IC50).

Consider `Clc1cc(N2CCC(N3CCN(c4cc(Cl)cc5cccnc45)CC3)CC2)c2ncccc2c1` [Example 4, 6-chloro-8-{4-[4-(6-chloro-8-quinolinyl)-1-piperazinyl]-1-piperidinyl}quinoline], for which, at human 5-HT1A receptor [1] (setting [4]), the inhibition constant (Ki) stood at 500 nM.
